# In ChEMBL document CHEMBL1201862, “PubChem BioAssay data set” (2004):
#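 Grown in 96-well plates, cells were treated for 48 hours with each compound at five concentrations. Insufficient inhibition: endpoint recorded as highest concentration tested. Abbreviation: GI50, concentration required for 50% inhibition of growth.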 The source made the active and inactive calls. Rule as the data show it: active = GI50 up to about 1.1 µM and inactive = higher.
# How the values were obtained:
# Assay in all cases: growth of human tumour cells (NCI), 48 h
# [1] = system: HOP-62
# [2] = system: SN12C
# [3] = system: BT-549
# [4] = system: SK-OV-3
# [5] = system: NCI-H226
# [6] = system: SK-MEL-2
# [7] = system: RXF 393
# [8] = system: HCT-116
# [9] = system: HCT-15
# [10] = system: Malme-3M
# [11] = system: M14
# [12] = system: OVCAR-5
# [13] = system: NCI/ADR-RES
# [14] = system: SF-295
# [15] = system: RPMI-8226
# [16] = system: HL-60
# [17] = system: PC-3
# [18] = system: ACHN
# [19] = system: UO-31
# [20] = system: NCI-H522
# [21] = system: K562
# [22] = system: SNB-75
# [23] = system: T47D
# [24] = system: Hs-578T
# [25] = system: 786-0
# [26] = system: HT-29
# [27] = system: SF-539
# [28] = system: CAKI-1
# [29] = system: MDA-N
# [30] = system: SNB-19
# [31] = system: MDA-MB-435
# [32] = system: HCC 2998
# [33] = system: HOP-92
# [34] = system: MDA-MB-231
# [35] = system: MCF7
# [36] = system: CCRF-CEM
# [37] = system: EKVX
# [38] = system: A549
# [39] = system: KM12
# [40] = system: MOLT-4
# [41] = system: OVCAR-4
# [42] = system: IGROV-1
# [43] = system: A498
# [44] = system: SK-MEL-5
# [45] = system: UACC-257
# [46] = system: NCI-H460
# [47] = system: U-251
# [48] = system: SF-268
# [49] = system: SK-MEL-28
# [50] = system: LOX IMVI
# [51] = system: TK-10
# [52] = system: NCI-H23
# [53] = system: OVCAR-8
# [54] = system: OVCAR-3
# [55] = system: SW-620
# [56] = system: UACC-62
# [57] = system: COLO 205
# [58] = system: SR
# [59] = system: DU-145
smiles,measurement,setting,value
O=C(NNC(=O)c1ccncc1)C(=O)Nc1cc(Cl)c(Cl)cc1Cl,GI50,[1],> 100 µM (inactive)
same,GI50,[2],> 100 µM (inactive)
same,GI50,[3],> 100 µM (inactive)
same,GI50,[4],> 100 µM (inactive)
same,GI50,[5],> 100 µM (inactive)
same,GI50,[6],> 100 µM (inactive)
same,GI50,[7],> 100 µM (inactive)
same,GI50,[8],> 100 µM (inactive)
same,GI50,[9],> 100 µM
same,GI50,[10],> 100 µM (inactive)
same,GI50,[11],> 100 µM (inactive)
same,GI50,[12],> 100 µM (inactive)
same,GI50,[13],> 100 µM (inactive)
same,GI50,[14],> 100 µM (inactive)
same,GI50,[15],> 100 µM (inactive)
same,GI50,[16],> 100 µM (inactive)
same,GI50,[17],> 100 µM (inactive)
same,GI50,[18],> 100 µM (inactive)
same,GI50,[19],> 100 µM (inactive)
same,GI50,[20],> 100 µM (inactive)
same,GI50,[21],> 100 µM (inactive)
same,GI50,[22],> 100 µM (inactive)
same,GI50,[23],> 100 µM (inactive)
same,GI50,[24],> 100 µM (inactive)
same,GI50,[25],> 100 µM (inactive)
same,GI50,[26],> 100 µM (inactive)
same,GI50,[27],> 100 µM (inactive)
same,GI50,[28],> 100 µM (inactive)
same,GI50,[29],> 100 µM (inactive)
same,GI50,[30],> 100 µM (inactive)
same,GI50,[31],> 100 µM (inactive)
same,GI50,[32],21.5 µM (inactive)
same,GI50,[33],> 100 µM (inactive)
same,GI50,[34],> 100 µM (inactive)
same,GI50,[35],> 100 µM (inactive)
same,GI50,[36],> 10 µM (inactive)
same,GI50,[37],> 100 µM (inactive)
same,GI50,[38],> 100 µM (inactive)
same,GI50,[39],> 100 µM (inactive)
same,GI50,[40],> 100 µM (inactive)
same,GI50,[41],> 100 µM (inactive)
same,GI50,[42],45.6 µM (inactive)
same,GI50,[43],> 100 µM (inactive)
same,GI50,[44],> 100 µM (inactive)
same,GI50,[45],> 100 µM (inactive)
same,GI50,[46],> 100 µM (inactive)
same,GI50,[47],> 100 µM (inactive)
same,GI50,[48],> 100 µM (inactive)
same,GI50,[49],> 100 µM (inactive)
same,GI50,[50],> 100 µM (inactive)
same,GI50,[51],> 100 µM (inactive)
same,GI50,[52],> 100 µM (inactive)
same,GI50,[53],> 100 µM (inactive)
same,GI50,[54],> 100 µM (inactive)
same,GI50,[55],> 100 µM (inactive)
same,GI50,[56],> 100 µM (inactive)
O=C(Cn1c2ccc(Br)cc2c2nc3ccccc3nc21)NCc1ccccc1,GI50,[1],23 µM (inactive)
same,GI50,[2],> 100 µM (inactive)
same,GI50,[3],39.9 µM (inactive)
same,GI50,[4],44.3 µM (inactive)
same,GI50,[5],78.7 µM (inactive)
same,GI50,[6],25.3 µM (inactive)
same,GI50,[7],12 µM (inactive)
same,GI50,[8],94.6 µM (inactive)
same,GI50,[57],> 100 µM (inactive)
same,GI50,[9],> 100 µM
same,GI50,[10],41.7 µM (inactive)
same,GI50,[11],89.9 µM (inactive)
same,GI50,[58],39.4 µM (inactive)
same,GI50,[59],> 100 µM (inactive)
same,GI50,[12],> 100 µM (inactive)
same,GI50,[13],> 100 µM (inactive)
same,GI50,[14],29 µM (inactive)
same,GI50,[15],> 100 µM (inactive)
same,GI50,[17],> 100 µM (inactive)
same,GI50,[18],13.4 µM (inactive)
same,GI50,[19],> 100 µM (inactive)
same,GI50,[21],> 100 µM (inactive)
same,GI50,[22],4.45 µM (inactive)
same,GI50,[23],4.1 µM (inactive)
same,GI50,[24],22.1 µM (inactive)
same,GI50,[25],13 µM (inactive)
same,GI50,[26],> 100 µM (inactive)
same,GI50,[28],26.8 µM (inactive)
same,GI50,[29],> 100 µM (inactive)
same,GI50,[30],22.3 µM (inactive)
same,GI50,[31],> 100 µM (inactive)
same,GI50,[32],> 100 µM (inactive)
same,GI50,[33],2.01 µM (inactive)
same,GI50,[34],35.4 µM (inactive)
same,GI50,[36],> 100 µM (inactive)
same,GI50,[38],> 100 µM (inactive)
same,GI50,[39],> 100 µM (inactive)
same,GI50,[40],> 100 µM (inactive)
same,GI50,[41],53.1 µM (inactive)
same,GI50,[42],67 µM (inactive)
same,GI50,[43],31.2 µM (inactive)
same,GI50,[44],> 100 µM (inactive)
same,GI50,[45],> 100 µM (inactive)
same,GI50,[46],> 100 µM (inactive)
same,GI50,[47],15 µM (inactive)
same,GI50,[48],38 µM (inactive)
same,GI50,[49],> 100 µM (inactive)
same,GI50,[50],42.9 µM (inactive)
same,GI50,[51],17.7 µM (inactive)
same,GI50,[52],37.7 µM (inactive)
same,GI50,[53],23.4 µM (inactive)
same,GI50,[54],> 100 µM (inactive)
same,GI50,[55],> 100 µM (inactive)
same,GI50,[56],24.4 µM (inactive)
